Columns and labels:
[1] = Phase I study: hemolysis measures / response parameters in subjects with SCD; format: in vivo, human
Excerpt: (§1) The following example presents a Phase I randomised, placebo-controlled, double-blind, single and multiple ascending dose study of the tolerability and pharmacokinetics of Compound 1 (GBT440) in healthy subjects and patients with Sickle Cell Disease.
Other Outcome Measures: • Percentage of sickled cells under ex vivo conditions [Time Frame: 30 days] • Effect of GBT440 on hemolysis as measured by LDH, direct bilirubin, hemoglobin, and reticulocyte count [Time Frame: 30 days] • Change from baseline in pain as measured by visual analog scale [Time Frame: 30 days] • Change from baseline in fatigue as measured by questionnaire [Time Frame: 30 days] • Exercise capacity as measured by 6-minute walk test [Time Frame: 30 days]
(§2) Experimental: GBT440 • Subjects randomized 6:2 to receive daily oral dosing of GBT440 or placebo for 1 day (single dose) and up to 28 days (multiple dose)
Inclusion Criteria: • Healthy male or female of non-child bearing potential; 18 to 55 years old; are non-smokers and have not used nicotine products within 3 months prior to screening. • Male or female, 18 to 60 years old, with sickle cell disease (hemoglobin SS) not requiring chronic blood transfusion therapy; without hospitalization in 30 days before screening or receiving blood transfusion within 30 days before screening; subjects are allowed concomitant use of hydroxyurea if the dose has been stable for the 3 months prior to screening. […]

[2] = Phase I study: whole blood and plasma pharmacokinetics of GBT440 (LC-MS-MS); format: in vivo, human; conditions: for half-life: human, whole blood, oral
Procedure: as §1, §2
Analysis of whole blood was performed as follows. 50 μL of diluted whole blood was mixed with 20 μL of GBT1592 (GBT440-D7) solution in acetonitrile. 0.3 mL of 0.1M citrate buffer solution (pH 3) was added to the sample, and the sample mixed briefly by vortexing, followed by sonication for 10 minutes. 2.0 mL methyl tert butyl ether (MTBE) was added to the sample, and the sample was capped, and mixed thoroughly by vortexing at high speed for 20 minutes. The sample was then centrifuged at 3300 rpm at room temperature for 10 minutes. 0.2 mL of the clear organic layer of the centrifuged sample was then transferred to a clean 96-well 2-mL plate, and the solvent was evaporated to dryness. […] The resultant reconstituted extract was analyzed by liquid chromatography mass spectrometry (LCMS).
For the LCMS, a Sciex API 4000 LC-MS-MS was equipped with an HPLC column. The peak area of the m/z 338.1→158.1 GBT440 product ion was measured against the peak area of the m/z 345.2→159.1 GBT1592 (GBT440-D7) internal standard product ion.
The whole blood samples, obtained as described above, were analyzed for pharmacokinetic parameters and RBC:Plasma ratios, as follows.
Terminal half-life and other pharmacokinetic parameters were calculated using Phoenix WinNonlin software. Apparent terminal half-life (t1/2) values were calculated as ln(2)/k, where k is the terminal elimination rate constant which is obtained by performing a linear regression on the terminal phase of a plot of the natural logarithm (ln) of concentration versus time.
RBC:Plasma ratio was calculated using the equation below. […]

sickle cells = assay: Irreversibly sickled cells counted in peripheral blood smears; format: in vivo, human
Excerpt: To quantify irreversibly sickled cells (ISCs), six different fields were randomly selected and imaged at 40× magnification per slide. Each field contained 100 to 300 cells and >500 cells (in 3 or more fields) were counted per blood smear slide. Cells that were classically sickled shape or appeared linear (with length equal to or more than 3× the width) with irregular or pointed edges were counted as sickled. Elliptical red blood cells (also appearing linear but with length approximately twice the width) with smooth rounded edges were counted as normal. In general, isolated non-discoid cells with spiky turns were counted as sickled.
Morphological criteria for sickle cells included the following categories: (1) non-discoid irregular shaped cells with irregular or pointed edges; (2) elliptocytes with length more than twice the width and with irregular or pointed edges; and (3) irregular shaped elliptocytes.

hemoglobin [3] = biological target: T1, hemoglobin (Homo sapiens, UniProt P68871+P69905, E7V); assay: Whole blood hemoximetry (oxygen equilibrium curves, % Hb modification); format: in vivo; conditions: 500 mg
T1 construct: from tissue; host or cells: whole blood (red blood cells) of study subjects
Procedure: Whole blood hemoximetry was used to measure oxygen equilibration. Blood from healthy volunteers and sickle cell disease (SCD) patients was drawn into 1.8 mL sodium citrate tubes. These samples were stored overnight at 4° C. prior to hemoximetry measurements. Based upon the hematocrit of the blood, either 50 μL or 100 μL of blood was diluted into 5 mL of 37° C. TES buffer (30 mM TES, 130 mM NaCl, 5 mM KCl, pH 7.4 at 25° C.). Diluted sample were loaded into TCS Hemox Analyzer cuvettes and oxygenated for twenty minutes using compressed air. After oxygenation, the samples were deoxygenated using nitrogen gas until the pO2 reached 1.6 millimeters of mercury (mm Hg). Data during this deoxygenation step was collected into Oxygen Equilibrium Curve (OEC) files using the TCS Hemox Analytical Software (HAS). OEC files were then analyzed to obtain the p50 (the partial pressure of oxygen at which 50% of hemoglobin in a sample is saturated with O2) and the p20 (the partial pressure of oxygen at which 20% of hemoglobin in a sample is saturated with O2). Delta p20 values (p20predose−p20sample time) were then used to calculate the % Hb Modification.

hemoglobin [4] = biological target: hemoglobin (Homo sapiens, UniProt P68871+P69905); conditions: in vitro and in vivo; cited from earlier work
[5] = 500 mg (Cohort 12), n = 10, subjects with SCD
[6] = 700 mg (Cohort 11), n = 12, subjects with SCD
[7] = 1000 mg (500 mg twice daily, Cohort 14), n = 5, subjects with SCD

SMILES: CC(C)n1nccc1-c1ncccc1COc1cccc(O)c1C=O [Compound 1, 2-hydroxy-6-((2-(1-isopropyl-1h-pyrazol-5-yl)pyridin-3-yl)methoxy)benzaldehyde]
- Hemoglobin, change from baseline to Day 28, median [1, 5]: 0.4 g/dL
- Lactate dehydrogenase, change from baseline to Day 28, median [1, 5]: −19.8%
- Reticulocytes, change from baseline to Day 28, median [1, 5]: −31.2%
- Unconjugated bilirubin, change from baseline to Day 28, median [1, 5]: −30.6%
- change in hemoglobin over time ([1]; 500 mg, 700 mg vs placebo (FIG. 4)): rapid and progressive rise in hemoglobin levels
- percent change in reticulocytes over time ([1]; 500 mg, 700 mg vs placebo (FIG. 5)): profound decline in reticulocytes
- Hemoglobin, change from baseline to Day 28, median [1, 6]: 0.7 g/dL
- Lactate dehydrogenase, change from baseline to Day 28, median [1, 6]: −11.9%
- Reticulocytes, change from baseline to Day 28, median [1, 6]: −37.0%
- Unconjugated bilirubin, change from baseline to Day 28, median [1, 6]: −42.6%
- hemoglobin response, higher dose level compared to lower ([1]; 700 mg compared to 500 mg (FIG. 4)): trend for a better response
- Hemoglobin, change from baseline to Day 28, median [1, 7]: 0.0 g/dL
- Lactate dehydrogenase, change from baseline to Day 28, median [1, 7]: −12.4%
- Reticulocytes, change from baseline to Day 28, median [1, 7]: −49.9%
- Unconjugated bilirubin, change from baseline to Day 28, median [1, 7]: −56.3%
- reticulocyte counts versus exposure ([1]; higher GBT440 exposures, day 28 (FIG. 8)): more profound reduction in reticulocyte counts
- hematologic response by Hb occupancy ([1]; participants who achieved >20% Hb occupancy compared to those who did not): improved hematologic response
- half-life ([2]; SCD subjects): ~38.4 h
- half-life ([2]; healthy subjects): ~72 h
- increase in GBT440 with dose ([2]; single and multiple dosing): dose proportional increase
- Irreversibly sickled cells, change from baseline to Day 28, median (sickle cells; [5]): −56.4%
- percent sickle cells over time (sickle cells; 500 mg, 700 mg vs placebo, 28 day dosing period (FIG. 6)): reduced sickle cells in the peripheral blood
- Irreversibly sickled cells, change from baseline to Day 28, median (sickle cells; [6]): −45.9%
- Irreversibly sickled cells, change from baseline to Day 28, median (sickle cells; [7]): −45.7%
- sickle cells in peripheral blood smears (sickle cells; subject treated with 700 mg, day 1 vs day 28 (FIGS. 7A-7B)): marked reduction in sickle cells
- hemoglobin modification (hemoglobin [3]; 700 mg (FIG. 3)): proportional to dose
- shift of the oxygen equilibrium curve (hemoglobin [3]; 700 mg vs placebo, SCD subjects (FIG. 3)): left shift of the oxygen equilibrium curve

SMILES: O=Cc1ccc(CO)o1 [Compound 5HMF, 5-hydroxymethyl-2-furfuraldehyde]
- hemoglobin modulation (hemoglobin [4]): potent hemoglobin modulator both in vitro and in vivo

Source: patent publication US11944612B2, “Dosing regimens for 2-hydroxy-6-((2-(1-isopropyl-1H-pyrazol-5-yl)pyridin-3-yl)methoxy)benzaldehyde” (Global Blood Therapeutics, Inc., priority 2015, dated 2024)
